Measured values published in patent publication US7960376B2, “Benzo-fused heterocycles” (priority 2007, dated 2011).

Assays:
rat CB2 receptor (rCB2) = molecular target: T1, rat CB2 receptor (rCB2) (Rattus norvegicus, UniProt Q9QZN9); assay: cell-based; format: cell-based; settings: intracellular cAMP, CHO-K1 cells, NKH-477 prestimulated; + agonist, − inverse agonist
T1 sequence (Q9QZN9 1-360): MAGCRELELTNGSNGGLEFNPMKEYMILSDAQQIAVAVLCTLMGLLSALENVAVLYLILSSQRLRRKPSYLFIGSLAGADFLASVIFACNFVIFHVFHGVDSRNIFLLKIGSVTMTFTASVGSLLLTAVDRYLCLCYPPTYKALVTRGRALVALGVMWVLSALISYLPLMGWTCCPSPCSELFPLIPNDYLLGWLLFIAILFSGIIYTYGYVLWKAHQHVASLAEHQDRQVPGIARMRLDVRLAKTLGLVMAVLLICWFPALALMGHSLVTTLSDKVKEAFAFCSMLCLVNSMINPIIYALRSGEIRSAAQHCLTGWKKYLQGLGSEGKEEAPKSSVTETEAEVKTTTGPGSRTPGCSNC

[1] = molecular target: human CB2 receptor (hCB2) (Homo sapiens, UniProt P34972); assay: cell-based; format: cell-based; settings: intracellular cAMP, CHO-K1 cells, NKH-477 prestimulated; + agonist, − inverse agonist
human CB2 receptor (hCB2), sequence (P34972 whole entry): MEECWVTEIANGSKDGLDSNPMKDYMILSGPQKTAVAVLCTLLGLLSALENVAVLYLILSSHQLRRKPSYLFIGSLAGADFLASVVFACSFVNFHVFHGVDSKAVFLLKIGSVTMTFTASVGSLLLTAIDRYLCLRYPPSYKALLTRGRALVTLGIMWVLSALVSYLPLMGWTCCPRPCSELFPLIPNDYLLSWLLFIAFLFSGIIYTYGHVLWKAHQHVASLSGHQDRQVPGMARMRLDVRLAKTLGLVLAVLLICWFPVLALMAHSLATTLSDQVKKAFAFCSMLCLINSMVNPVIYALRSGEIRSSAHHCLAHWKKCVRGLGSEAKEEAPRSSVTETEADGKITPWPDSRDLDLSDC

In the case of `CC(C)(C)NC(=O)c1ccc2c(c1)N(C(=O)c1ccccc1)CCS2` [Example 9, 4-benzoyl-N-tert-butyl-3,4-dihydro-2H-benzo[b][1,4]thiazine-6-carboxamide], the “rCB2 EC50 range” value (rat CB2 receptor (rCB2)) is reported as “−D”.

In the case of `CC(C)(C)NC(=O)c1ccc2c(c1)N(C(=O)c1ccc(Cl)cc1)CCS2` [Example 10, N-tert-butyl-4-(4-chlorobenzoyl)-3,4-dihydro-2H-benzo[b][1,4]thiazine-6-carboxamide], the “hCB2 EC50 range” value [1] is reported as “+D” and the “rCB2 EC50 range” value (rat CB2 receptor (rCB2)) is reported as “+D”.

`COc1ccc(C(=O)N2CCSc3ccc(C(=O)NC4CCCC4)cc32)cc1` [Example 11, N-cyclopentyl-4-(4-methoxybenzoyl)-3,4-dihydro-2H-benzo[b] [1,4]thiazine-6-carboxamide] was tested, and the “hCB2 EC50 range” value [1] was “−E” and the “rCB2 EC50 range” value (rat CB2 receptor (rCB2)) was “−D”.

For `O=C(NC1CCCC1)c1ccc2c(c1)N(C(=O)c1ccc(Cl)cc1)CCS2` [Example 15, N-cyclopentyl-4-(4-chlorobenzoyl)-3,4-dihydro-2H-benzo[b] [1,4]thiazine-6-carboxamide], the “rCB2 EC50 range” value (rat CB2 receptor (rCB2)) was “−E”.

`COCCCNC(=O)c1ccc2c(c1)N(C(=O)c1ccccc1)CCS2` [Example 16, 4-benzoyl-N-(3-methoxypropyl)-3,4-dihydro-2H-benzo[b][1,4]thiazine-6-carboxamide] was tested, and the “hCB2 EC50 range” value [1] was “−E” and the “rCB2 EC50 range” value (rat CB2 receptor (rCB2)) was “−D”.

For `COCCCNC(=O)c1ccc2c(c1)N(C(=O)c1ccc(F)cc1)CCS2` [Example 17], the “rCB2 EC50 range” value (rat CB2 receptor (rCB2)) was “−E”.

With `COCCCNC(=O)c1ccc2c(c1)N(C(=O)c1ccc(C)cc1)CCS2` [Example 18, N-(3-methoxypropyl)-4-(4-methylbenzoyl)-3,4-dihydro-2H-benzo[b][1,4]thiazine-6-carboxamide] the “hCB2 EC50 range” value [1] was “−E” and the “rCB2 EC50 range” value (rat CB2 receptor (rCB2)) was “−E”.

With `COCCCNC(=O)c1ccc2c(c1)N(C(=O)c1ccc(Cl)cc1)CCS2` [Example 19] the “hCB2 EC50 range” value [1] was “−E” and the “rCB2 EC50 range” value (rat CB2 receptor (rCB2)) was “−E”.

`COCCCNC(=O)c1ccc2c(c1)N(C(=O)c1ccc(OC)cc1)CCS2` [Example 20] was tested, and the “hCB2 EC50 range” value [1] was “−E”.

For `CC(C)NC(=O)c1ccc2c(c1)N(C(=O)c1ccccc1)CCS2` [Example 26, 4-benzoyl-N-isopropyl-3,4-dihydro-2H-benzo[b][1,4]thiazine-6-carboxamide], the “rCB2 EC50 range” value (rat CB2 receptor (rCB2)) was “−E”.

For `CC(C)NC(=O)c1ccc2c(c1)N(C(=O)c1ccc(F)cc1)CCS2` [Example 27], the “hCB2 EC50 range” value [1] was “+E” and the “rCB2 EC50 range” value (rat CB2 receptor (rCB2)) was “+D”.

In the case of `CC(C)NC(=O)c1ccc2c(c1)N(C(=O)c1ccc(Cl)cc1)CCS2` [Example 29], the “hCB2 EC50 range” value [1] is reported as “+D” and the “rCB2 EC50 range” value (rat CB2 receptor (rCB2)) is reported as “+D”.

With `COc1ccc(C(=O)N2CCSc3ccc(C(=O)NC(C)C)cc32)cc1` [Example 30, N-isopropyl-4-(4-methoxybenzoyl)-3,4-dihydro-2H-benzo[b][1,4]thiazine-6-carboxamide] the “hCB2 EC50 range” value [1] was “−E” and the “rCB2 EC50 range” value (rat CB2 receptor (rCB2)) was “−E”.

For `CC(=O)N1CCSc2ccc(C(=O)NC(C)(C)C)cc21` [Example 32, 4-acetyl-N-tert-butyl-3,4-dihydro-2H-benzo[b][1,4]thiazine-6-carboxamide], the “rCB2 EC50 range” value (rat CB2 receptor (rCB2)) was “−E”.

In the case of `CCC(=O)N1CCSc2ccc(C(=O)NC(C)(C)C)cc21` [Example 33, N-tert-butyl-4-propionyl-3,4-dihydro-2H-benzo[b][1,4]thiazine-6-carboxamide], the “hCB2 EC50 range” value [1] is reported as “+D”.

In the case of `CC(C)C(=O)N1CCSc2ccc(C(=O)NC(C)(C)C)cc21` [Example 34, N-tert-butyl-4-isobutyryl-3,4-dihydro-2H-benzo[b][1,4]thiazine-6-carboxamide], the “hCB2 EC50 range” value [1] is reported as “+D” and the “rCB2 EC50 range” value (rat CB2 receptor (rCB2)) is reported as “+D”.

For `CC(=O)N1CCSc2ccc(C(=O)NC3CCCC3)cc21` [Example 35, 4-acetyl-N-cyclopentyl-3,4-dihydro-2H-benzo[b][1,4]thiazine-6-carboxamide], the “hCB2 EC50 range” value [1] was “+E” and the “rCB2 EC50 range” value (rat CB2 receptor (rCB2)) was “−E”.

For `CCC(=O)N1CCSc2ccc(C(=O)NC3CCCC3)cc21` [Example 36, N-cyclopentyl-4-propionyl-3,4-dihydro-2H-benzo[b][1,4]thiazine-6-carboxamide], the “hCB2 EC50 range” value [1] was “+E” and the “rCB2 EC50 range” value (rat CB2 receptor (rCB2)) was “−E”.

For `CC(C)C(=O)N1CCSc2ccc(C(=O)NC3CCCC3)cc21` [Example 37, N-cyclopentyl-4-isobutyryl-3,4-dihydro-2H-benzo[b][1,4]thiazine-6-carboxamide], the “hCB2 EC50 range” value [1] was “+E” and the “rCB2 EC50 range” value (rat CB2 receptor (rCB2)) was “−E”.

With `COCCCNC(=O)c1ccc2c(c1)N(C(=O)C(C)C)CCS2` [Example 38, 4-isobutyryl-N-(3-methoxypropyl)-3,4-dihydro-2H-benzo[b][1,4]thiazine-6-carboxamide] the “rCB2 EC50 range” value (rat CB2 receptor (rCB2)) was “−E”.

For `CC(C)CNC(=O)c1ccc2c(c1)N(S(=O)(=O)c1ccccc1)CCS2` [Example 41, N-isobutyl-4-(phenylsulfonyl)-3,4-dihydro-2H-benzo-[b][1,4]thiazine-6-carboxamide], the “hCB2 EC50 range” value [1] was “+C” and the “rCB2 EC50 range” value (rat CB2 receptor (rCB2)) was “+A”.

With `O=C(NC1CCCC1)c1ccc2c(c1)N(S(=O)(=O)c1ccccc1)CCS2` [Example 44, N-cyclopentyl-4-(phenylsulfonyl)-3,4-dihydro-2H-benzo[b][1,4]thiazine-6-carboxamide] the “hCB2 EC50 range” value [1] was “+C” and the “rCB2 EC50 range” value (rat CB2 receptor (rCB2)) was “+B”.

In the case of `CC(C)(C)NC(=O)c1ccc2c(c1)N(S(=O)(=O)c1ccccc1)CCS2` [Example 46, N-tert-butyl-4-(phenylsulfonyl)-3,4-dihydro-2H-benzo[b][1,4]thiazine-6-carboxamide], the “hCB2 EC50 range” value [1] is reported as “+B” and the “rCB2 EC50 range” value (rat CB2 receptor (rCB2)) is reported as “+B”.

For `COCCCNC(=O)c1ccc2c(c1)N(S(=O)(=O)c1ccccc1)CCS2` [Example 48, N-(3-methoxypropyl)-4-(phenylsulfonyl)-3,4-dihydro-2H-benzo[b][1,4]thiazine-6-carboxamide], the “hCB2 EC50 range” value [1] was “+D” and the “rCB2 EC50 range” value (rat CB2 receptor (rCB2)) was “+B”.

`CC(C)NC(=O)c1ccc2c(c1)N(S(=O)(=O)c1ccccc1)CCS2` [Example 52, N-isopropyl-4-(phenylsulfonyl)-3,4-dihydro-2H-benzo[b][1,4]thiazine-6-carboxamide] was tested, and the “hCB2 EC50 range” value [1] was “+C” and the “rCB2 EC50 range” value (rat CB2 receptor (rCB2)) was “+A”.

For `CC(C)(C)NC(=O)c1ccc2c(c1)N(S(C)(=O)=O)CCS2` [Example 53, N-tert-butyl-4-(methylsulfonyl)-3,4-dihydro-2H-benzo[b][1,4]thiazine-6-carboxamide], the “hCB2 EC50 range” value [1] was “+E” and the “rCB2 EC50 range” value (rat CB2 receptor (rCB2)) was “+D”.

`CC(C)CNC(=O)c1ccc2c(c1)N(S(C)(=O)=O)CCS2` [Example 54, N-isobutyl-4-(methylsulfonyl)-3,4-dihydro-2H-benzo[b][1,4]thiazine-6-carboxamide] was tested, and the “hCB2 EC50 range” value [1] was “+E” and the “rCB2 EC50 range” value (rat CB2 receptor (rCB2)) was “+D”.

`CS(=O)(=O)N1CCSc2ccc(C(=O)NC3CCCC3)cc21` [Example 55, N-cyclopentyl-4-(methylsulfonyl)-3,4-dihydro-2H-benzo[b][1,4]thiazine-6-carboxamide] was tested, and the “hCB2 EC50 range” value [1] was “+E” and the “rCB2 EC50 range” value (rat CB2 receptor (rCB2)) was “+D”.

In the case of `COCCCNC(=O)c1ccc2c(c1)N(S(C)(=O)=O)CCS2` [Example 56, N-(3-methoxypropyl)-4-(methylsulfonyl)-3,4-dihydro-2H-benzo[b][1,4]thiazine-6-carboxamide], the “rCB2 EC50 range” value (rat CB2 receptor (rCB2)) is reported as “+E”.

For `CC(C)NC(=O)c1ccc2c(c1)N(S(C)(=O)=O)CCS2` [Example 57, N-isopropyl-4-(methylsulfonyl)-3,4-dihydro-2H-benzo[b][1,4]thiazine-6-carboxamide], the “hCB2 EC50 range” value [1] was “+E” and the “rCB2 EC50 range” value (rat CB2 receptor (rCB2)) was “+D”.

In the case of `CC(C)CNC(=O)c1ccc2c(c1)N(S(=O)(=O)c1ccccc1)CCO2` [Example 59, N-isobutyl-4-(phenylsulfonyl)-3,4-dihydro-2H-benzo [b][1,4]oxazine-6-carboxamide], the “hCB2 EC50 range” value [1] is reported as “+C” and the “rCB2 EC50 range” value (rat CB2 receptor (rCB2)) is reported as “+C”.

`CCN(CC)C(=O)c1ccc2c(c1)N(S(=O)(=O)c1ccccc1)CCS2` [Example 65, N,N-diethyl-4-(phenylsulfonyl)-3,4-dihydro-2H-benzo[b][1,4]thiazine-6-carboxamide] was tested, and the “hCB2 EC50 range” value [1] was “+C” and the “rCB2 EC50 range” value (rat CB2 receptor (rCB2)) was “+C”.

With `O=C(c1ccc2c(c1)N(S(=O)(=O)c1ccc(C(F)(F)F)cc1)CCS2)N1CCCCC1` [Example 75, piperidin-1-yl(4-(4-(trifluoromethyl)phenylsulfonyl)-3,4-dihydro-2H-benzo[b][1,4]thiazin-6-yl)methanone] the “rCB2 EC50 range” value (rat CB2 receptor (rCB2)) was “−C”.

`O=S(=O)(c1ccc(C(F)(F)F)cc1)N1CCSc2ccc(-c3nc(-c4cccc(C(F)(F)F)c4)no3)cc21` [Example 80, 3-(3-(trifluoromethyl)phenyl)-5-(4-(4-(trifluoromethyl)phenylsulfonyl)-3,4-dihydro-2H-benzo[b][1,4]thiazin-6-yl)-1,2,4-oxadiazole] was tested, and the “hCB2 EC50 range” value [1] was “+D”.

`CC1(C)CCN(S(=O)(=O)c2ccc(F)cc2)c2cc(C(=O)N3CCCC3)ccc2S1` [Example 102, (5-(4-fluorophenyl-sulfonyl)-2,2-dimethyl-2,3,4,5-tetrahydro-benzo[b][1,4]thiazepin-7-yl)(pyrrolidin-1-yl)-methanone] was tested, and the “rCB2 EC50 range” value (rat CB2 receptor (rCB2)) was “+C”.
